Data as given in patent US9334263B2, “Compositions useful for treating disorders related to kit” (BLUEPRINT MEDICINES CORPORATION, priority 2013, dated 2016).

The compounds below were run against T1, D816V Kit (Homo sapiens, UniProt P10721, D816V) (assay: Kit D816V assay at Km (Caliper electrophoretic mobility shift)). Settings: 15 uM ATP, 25 C, 90 minutes.
T1 construct: purchased Carna Bioscience 08-156
Type: biochemical
Protocol: In order to assess the activity of chemical compounds against the relevant kinase of interest, the Caliper LifeSciences electrophoretic mobility shift technology platform is used. Fluorescently labeled substrate peptide is incubated in the presence of kinase and ATP so that a […] proportion of the peptide is phosphorylated. At the end of the reaction, the mix of phosphorylated (product) and non-phosphorylated (substrate) peptides are passed through the microfluidic system of the Caliper EZ Reader 2, under an applied potential difference. The presence of the phosphate group on the product peptide provides a difference in mass and charge between those of the substrate peptide, resulting in a separation of the substrate and product pools in the sample. As the pools pass a LEDS within the instrument, these pools are detected and resolved as separate peaks. The ratio between these peaks therefore reflects the activity of the chemical matter at that concentration in that well, under those conditions.
The reaction was stopped by the addition of 70 ul of Stop buffer (100 mM HEPES pH 7.5, 0.015% Brij 35, 35 mM EDTA and 0.2% of Coating Reagent 3 (Caliper Lifesciences)). The plate was then read on a Caliper EZReader 2 (protocol settings: −1.9 psi, upstream voltage −700, downstream voltage −3000, post sample sip 35 s).

T1 sequence (P10721 26-976 D816V): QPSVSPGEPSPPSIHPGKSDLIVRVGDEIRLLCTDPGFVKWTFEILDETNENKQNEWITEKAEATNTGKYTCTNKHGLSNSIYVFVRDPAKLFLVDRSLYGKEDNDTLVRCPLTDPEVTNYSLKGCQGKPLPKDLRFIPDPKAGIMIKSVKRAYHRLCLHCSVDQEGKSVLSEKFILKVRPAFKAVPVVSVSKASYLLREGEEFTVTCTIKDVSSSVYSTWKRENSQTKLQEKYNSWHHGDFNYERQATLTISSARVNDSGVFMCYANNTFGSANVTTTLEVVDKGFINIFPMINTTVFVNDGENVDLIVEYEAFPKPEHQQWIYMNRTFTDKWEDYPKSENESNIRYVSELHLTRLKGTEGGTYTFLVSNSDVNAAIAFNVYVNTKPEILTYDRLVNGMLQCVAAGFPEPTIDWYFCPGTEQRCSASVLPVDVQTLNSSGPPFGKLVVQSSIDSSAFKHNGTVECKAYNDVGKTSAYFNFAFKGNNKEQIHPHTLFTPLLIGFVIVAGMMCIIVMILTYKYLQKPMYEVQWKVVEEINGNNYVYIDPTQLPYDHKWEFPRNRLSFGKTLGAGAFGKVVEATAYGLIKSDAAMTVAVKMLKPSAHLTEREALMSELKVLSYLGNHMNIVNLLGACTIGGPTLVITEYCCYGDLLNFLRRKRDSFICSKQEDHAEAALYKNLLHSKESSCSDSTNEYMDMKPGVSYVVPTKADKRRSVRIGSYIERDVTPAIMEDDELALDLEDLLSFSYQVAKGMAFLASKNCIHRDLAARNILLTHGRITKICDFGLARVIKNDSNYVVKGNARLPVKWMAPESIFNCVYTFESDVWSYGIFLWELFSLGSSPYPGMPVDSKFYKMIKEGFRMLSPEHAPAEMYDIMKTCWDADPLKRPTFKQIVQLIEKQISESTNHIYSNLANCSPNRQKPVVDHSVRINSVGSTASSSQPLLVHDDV

Row | IC50 [nM] | SMILES
1 | 1.01 to 10 | Fc1cccc(Sc2cnc(N3CCN(c4ncnc(Nc5cnn(C[C@@H]6CNCCO6)c5)n4)CC3)nc2)c1 [Compound 257]
2 | 1.01 to 10 | O[C@H]1CCN(c2ccc(Nc3ncnc(N4CCN(c5ncc(Cc6ccccc6)cn5)CC4)n3)cc2)C1 [Compound 112]
3 | 1.01 to 10 | Cc1c(Nc2ncnc(N3CCN(c4ncc(C(C)c5ccccc5)cn4)CC3)n2)cnn1C[C@@H]1CNCCO1 (stereo partly drawn) [Compound 243]
4 | 1.01 to 10 | COc1cc(Nc2ncnc(N3CCN(c4ncc(Cc5ccccc5)cn4)CC3)n2)ccn1 [Compound 17]
5 | < 1 | O=S1(=O)Cc2ccc(Nc3ncnc(N4CCN(c5ncc(Cc6ccccc6)cn5)CC4)n3)cc2CN1 [Compound 192]
6 | 1.01 to 10 | Fc1ccc(Oc2cnc(N3CCN(c4ncnc(Nc5cnn(C[C@@H]6CNCCO6)c5)n4)CC3)nc2)cc1 [Compound 202]
7 | 1.01 to 10 | O=C(c1ccccc1)c1cnc(N2CCN(c3ncnc(Nc4cnn(CC5CNCCO5)c4)n3)CC2)nc1 (stereo not drawn) [Compound 178]
8 | 1.01 to 10 | Fc1ccccc1Sc1cnc(N2CCN(c3ncnc(Nc4ccc(C5CNCCO5)cc4)n3)CC2)nc1 (stereo not drawn) [Compound 251]
9 | 1.01 to 10 | Fc1cccc(Cc2cnc(N3CCN(c4ncnc(Nc5cnn(C[C@@H]6CNCCO6)c5)n4)CC3)nc2)c1 [Compound 197]

The remaining lines, values behind:

Row | SMILES | IC50 [nM]
10 | C[C@H](O)CNc1ccc(Nc2ncnc(N3CCN(c4ncc(Cc5ccccc5)cn4)CC3)n2)cc1 [Compound 81] | < 1
11 | Cc1[nH]ncc1Nc1ncnc(N2CCN(c3ncc(Sc4ccccc4F)cn3)CC2)n1 [Compound 20] | < 1
12 | Fc1ccc(Cc2cnc(N3CCN(c4ncnc(Nc5ccc6c(c5)CNCC6)n4)CC3)nc2)cc1F [Compound 139] | 1.01 to 10
13 | O[C@@H]1CCN(c2ccc(Nc3ncnc(N4CCN(c5ncc(Cc6ccccc6)cn5)CC4)n3)cc2)C1 [Compound 111] | 1.01 to 10
14 | CC(c1ccccc1)c1cnc(N2CCN(c3ncnc(Nc4ccc5c(c4)CNCC5)n3)CC2)nc1 (stereo not drawn) [Compound 71] | < 1
15 | CC(C)(O)Cn1cc(Nc2ncnc(N3CCN(c4ncc(Sc5ccccc5F)cn4)CC3)n2)cn1 [Compound 150] | 1.01 to 10
16 | Fc1cccc(Oc2cnc(N3CCN(c4ncnc(Nc5cnn(C[C@@H]6CNCCO6)c5)n4)CC3)nc2)c1 [Compound 204] | 1.01 to 10
17 | c1ccc(Cc2cnc(N3CCN(c4ncnc(Nc5ccc(O[C@H]6CCNC6)cc5)n4)CC3)nc2)cc1 [Compound 108] | < 1
18 | C[C@@H]1CN(c2ncnc(Nc3ccc(N4CCC[C@@H](O)C4)cc3)n2)CCN1c1ncc(Cc2ccccc2)cn1 [Compound 222] | 1.01 to 10
19 | Fc1cccc(Cc2cnc(N3CCN(c4ncnc(Nc5ccc6c(c5)CNCC6)n4)CC3)nc2)c1F [Compound 137] | 1.01 to 10
20 | CN1CCNC[C@@H]1Cn1cc(Nc2ncnc(N3CCN(c4ncc(Cc5ccccc5)cn4)CC3)n2)cn1 [Compound 177] | 1.01 to 10
21 | Cc1c(Nc2ncnc(N3CCN(c4ncc(Sc5ccccc5F)cn4)CC3)n2)cnn1C1COC1 [Compound 147] | 1.01 to 10

These compounds were tested against T2, Kit D816V (HMC1.2 cells, Kit V560G and D816V) (Homo sapiens, UniProt P10721, D816V/V560G) (assay: HMC1.2 autophosphorylation assay (AlphaLISA, phospho-Y719 c-Kit)). Settings: Kit autophosphorylation at tyrosine 719, 90 minutes, read-out: Cellular Activity.
T2 construct: endogenous in cells; host or cells: HMC1.2 cells
T2 sequence (P10721 26-976 V560G/D816V): as the sequence (P10721 26-976 D816V) above, with V535G counted along it
Type: cell-based
Protocol: HMC1.2 Autophosphorylation Assay:
10,000 HMC1.2 cells were incubated in 22 ul culture media (phenol-red free IMDM, no serum) in each well of a 384-well plate and serum starved overnight in a tissue culture incubator (5% CO2, 37° C.). A 10-point dose concentration series of compound (25 uM-95.4 pM) were then added to the cells in a volume of 3.1 ul to each well (0.25% DMSO final concentration). After 90 minutes, 6 ul of 5× AlphaLISA Lysis Buffer (Perkin Elmer) supplemented with a protease and phosphatase inhibitor cocktail (Cell Signaling Technologies) was added to each well and shaken at 450 rpm for 15 minutes at 4° C. 10 ul of phospho-Y719 c-Kit and total c-Kit antibodies (15 nM final concentration, Cell Signaling Technologies) and 50 ug/ml AlphaLISA rabbit acceptor beads (Perkin Elmer) were added to each well and shaken at 300 rpm at room temperature for 2 hours. 10 ul of 100 ug/ml streptavidin donor beads (Perkin Elmer) were added to each well, blocked from light with aluminum adhesive and shaken at 300 rpm at room temperature for 2 hours. Fluorescence signal was obtained on Envision (Perkin Elmer) by AlphaScreen 384 well HTS protocol.
This cell line contains Kit mutated at positions V560G and D816V resulting in constitutive activation of the kinase. The following compounds were tested in an assay to measure direct inhibition of Kit D816V kinase activity by assaying Kit autophosphorylation at tyrosine 719 on the Kit protein.

Row | IC50 [nM] | SMILES
22 | 100 to 1000 | Fc1cccc(Sc2cnc(N3CCN(c4ncnc(Nc5cnn(C[C@@H]6CNCCO6)c5)n4)CC3)nc2)c1 [Compound 257]
23 | 100 to 1000 | O[C@H]1CCN(c2ccc(Nc3ncnc(N4CCN(c5ncc(Cc6ccccc6)cn5)CC4)n3)cc2)C1 [Compound 112]
24 | 10 to 100 | Cc1c(Nc2ncnc(N3CCN(c4ncc(C(C)c5ccccc5)cn4)CC3)n2)cnn1C[C@@H]1CNCCO1 (stereo partly drawn) [Compound 243]
25 | 1000 to 10000 | COc1cc(Nc2ncnc(N3CCN(c4ncc(Cc5ccccc5)cn4)CC3)n2)ccn1 [Compound 17]
26 | < 10 | O=S1(=O)Cc2ccc(Nc3ncnc(N4CCN(c5ncc(Cc6ccccc6)cn5)CC4)n3)cc2CN1 [Compound 192]
27 | 100 to 1000 | Fc1ccc(Oc2cnc(N3CCN(c4ncnc(Nc5cnn(C[C@@H]6CNCCO6)c5)n4)CC3)nc2)cc1 [Compound 202]
28 | 100 to 1000 | O=C(c1ccccc1)c1cnc(N2CCN(c3ncnc(Nc4cnn(CC5CNCCO5)c4)n3)CC2)nc1 (stereo not drawn) [Compound 178]
29 | 100 to 1000 | Fc1ccccc1Sc1cnc(N2CCN(c3ncnc(Nc4ccc(C5CNCCO5)cc4)n3)CC2)nc1 (stereo not drawn) [Compound 251]
30 | 100 to 1000 | Fc1cccc(Cc2cnc(N3CCN(c4ncnc(Nc5cnn(C[C@@H]6CNCCO6)c5)n4)CC3)nc2)c1 [Compound 197]

The remaining lines, values behind:

Row | SMILES | IC50 [nM]
31 | C[C@H](O)CNc1ccc(Nc2ncnc(N3CCN(c4ncc(Cc5ccccc5)cn4)CC3)n2)cc1 [Compound 81] | 10 to 100
32 | Cc1[nH]ncc1Nc1ncnc(N2CCN(c3ncc(Sc4ccccc4F)cn3)CC2)n1 [Compound 20] | 10 to 100
33 | Fc1ccc(Cc2cnc(N3CCN(c4ncnc(Nc5ccc6c(c5)CNCC6)n4)CC3)nc2)cc1F [Compound 139] | 10 to 100
34 | O[C@@H]1CCN(c2ccc(Nc3ncnc(N4CCN(c5ncc(Cc6ccccc6)cn5)CC4)n3)cc2)C1 [Compound 111] | 10 to 100
35 | CC(c1ccccc1)c1cnc(N2CCN(c3ncnc(Nc4ccc5c(c4)CNCC5)n3)CC2)nc1 (stereo not drawn) [Compound 71] | 10 to 100
36 | CC(C)(O)Cn1cc(Nc2ncnc(N3CCN(c4ncc(Sc5ccccc5F)cn4)CC3)n2)cn1 [Compound 150] | 10 to 100
37 | Fc1cccc(Oc2cnc(N3CCN(c4ncnc(Nc5cnn(C[C@@H]6CNCCO6)c5)n4)CC3)nc2)c1 [Compound 204] | 100 to 1000
38 | c1ccc(Cc2cnc(N3CCN(c4ncnc(Nc5ccc(O[C@H]6CCNC6)cc5)n4)CC3)nc2)cc1 [Compound 108] | 10 to 100
39 | C[C@@H]1CN(c2ncnc(Nc3ccc(N4CCC[C@@H](O)C4)cc3)n2)CCN1c1ncc(Cc2ccccc2)cn1 [Compound 222] | 10 to 100
40 | Fc1cccc(Cc2cnc(N3CCN(c4ncnc(Nc5ccc6c(c5)CNCC6)n4)CC3)nc2)c1F [Compound 137] | 10 to 100
41 | CN1CCNC[C@@H]1Cn1cc(Nc2ncnc(N3CCN(c4ncc(Cc5ccccc5)cn4)CC3)n2)cn1 [Compound 177] | 10 to 100
42 | Cc1c(Nc2ncnc(N3CCN(c4ncc(Sc5ccccc5F)cn4)CC3)n2)cnn1C1COC1 [Compound 147] | 100 to 1000
